Test system: Haemonchus contortus
Assay: Haemonchus contortus larvacidal assay: NemaTOX H. contortus dose response (larval development, eggs to L3)
Format: cell-based
Conditions: concentration required to inhibit development in 99% of the nematode larvae, eggs on agar to L3 stage (6 days), two-fold dilutions, 0.024 to 50 μg/ml; for LD99: Table 2; for IC99: Haemonchus contortus, 144 h, Table 3, read-out: LD99
Method: Haemonchus Contortus Larvacidal Assay: NemaTOX H.contortus Dose Response (00/0510)
Effect on larval development is determined in the assay described by Gill et al. (International Journal of Parasitology, 1995, 25, 463-470). Briefly, in this assay nematode eggs were applied to the surface of an agar matrix containing the test compound and then allowed to develop through to the L3, infective stage (6 days)
The wells for each dilution of every compound (from highest to lowest concentration) were inspected to determine the well number corresponding to the lowest concentration at which development was inhibited in 99% of the nematode larvae present. As the well numbers correspond to a two-fold serial dilution of each compound, a titre (dilution factor) is generated as 2^n-1, where n is the well number. By dividing the highest concentration tested by the titre an LD99 value can be obtained, representing the concentration required to inhibit development in 99% of the nematode larvae present.
The compounds supplied as solid and viscous liquids were dissolved in DMSO. Twelve serial 1/2 dilutions in DMSO solution were prepared from the stock solution, each of which was then diluted 1/5 with water. Aliquots (10 μl) of each dilution were transferred to the bioassay plates to give a final concentration range of 0.024 to 50 μg/ml.
In Tables 1, 2 and 3 the Haemonchus contortus LD99 values for compounds in accordance with the present invention are listed, measured in micrograms/mL.

In the case of `COCCOc1ccc(-c2cn3nc(OCc4ccccc4)ccc3n2)cc1` [Compound 92], the LD99 is reported as 0.438 micrograms/mL.
`COCCOc1cccc(-c2nc3ccc(Br)nn3c2C)c1` [Compound 93] showed an LD99 of 11 micrograms/mL.
`CCCOc1ccc2nc(-c3cccc(OCCOC)c3)c(C)n2n1` [Compound 94] gave an LD99 of 1.88 micrograms/mL.
In the case of `COCCOc1cccc(-c2nc3ccc(OCC4CC4)nn3c2C)c1` [Compound 95], the LD99 is reported as 0.875 micrograms/mL.
`CCCCSc1ccc2nc(-c3ccc(OCCOC)cc3)cn2n1` [Compound 99] showed an LD99 of 0.0938 micrograms/mL.
`CCOc1ccc2nc(-c3ccc(OCCOC)cc3)cn2n1` [Compound 100] gave an LD99 of 0.406 micrograms/mL.
Work on `CCSc1ccc2nc(-c3ccc(OCCOC)cc3)cn2n1` [Compound 101] yielded an LD99 of 0.3123 micrograms/mL.
`COCCOc1cccc(-c2nc3ccc(SCC(C)C)nn3c2C)c1` [Compound 102] gave an LD99 of 12 micrograms/mL.
In the case of `COCCOc1cccc(-c2nc3ccc(SC(C)C)nn3c2C)c1` [Compound 103], the LD99 is reported as 7 micrograms/mL.
`COCCOc1cccc(-c2nc3ccc(OC(C)C)nn3c2C)c1` [Compound 104] was tested, and the LD99 was 5 micrograms/mL.
In the case of `COCCOc1ccc(-c2cn3nc(SCC(C)C)ccc3n2)cc1OC` [Compound 105], the LD99 is reported as 0.406 micrograms/mL.
With `CCCCOc1ccc2nc(-c3ccc(OCCOC)c(OC)c3)cn2n1` [Compound 106] the LD99 was 0.313 micrograms/mL.
For `COCCOc1ccc(-c2cn3nc(OC(C)C)ccc3n2)cc1OC` [Compound 107], the LD99 was 7 micrograms/mL.
`COCCOc1ccc(-c2cn3nc(SCC(C)C)ccc3n2)cc1` [Compound 108] showed an LD99 of 0.313 micrograms/mL.
Work on `COCCOc1ccc(-c2cn3nc(SC(C)C)ccc3n2)cc1` [Compound 109] yielded an LD99 of 0.203 micrograms/mL.
Work on `CCCCOc1ccc2nc(-c3ccc(OCCOC)cc3)cn2n1` [Compound 111] yielded an LD99 of 0.219 micrograms/mL.
Work on `COCCOc1ccc(-c2cn3nc(OC(C)C)ccc3n2)cc1` [Compound 112] yielded an LD99 of 1.63 micrograms/mL.
`CCCOc1ccc2nc(-c3ccc(OCCOC)c(OC)c3)c(I)n2n1` [Compound 113] was tested, and the LD99 was 5 micrograms/mL.
`COCCOc1ccc(-c2nc3ccc(SCC(C)C)nn3c2CN(C)C)cc1` [Compound 114] was tested, and the LD99 was 3.25 micrograms/mL.
`CCCCSc1ccc2nc(-c3ccc(OCCOCC)cc3)cn2n1` [Compound 115] gave an LD99 of 0.219 micrograms/mL.
`CCCOc1ccc2nc(-c3ccc(OCCOCC)cc3)cn2n1` [Compound 116] showed an LD99 of 0.109 micrograms/mL.
Work on `CCOCCOc1ccc(-c2cn3nc(OCC4CC4)ccc3n2)cc1` [Compound 117] yielded an LD99 of 0.0391 micrograms/mL.
Molecule `CCOc1ccc2nc(-c3ccc(OCCOC)c(OC)c3)cn2n1` [Compound 118] has an LD99 of 1.25 micrograms/mL.
In the case of `CCCOc1nn2cc(-c3ccc(OCCOC)cc3)nc2c2ccccc12` [Compound 119], the LD99 is reported as 0.344 micrograms/mL.
With `CCCOc1nn2cc(-c3ccc(OCCO)cc3)nc2c2ccccc12` [Compound 120] the LD99 was 1.38 micrograms/mL.
`CCCOc1ccc2nc3c(n2n1)CCc1cc(OC)ccc1-3` [Compound 121, 3-Methoxy-8-propoxy-5,6-dihydro-6b,7,11-triaza-benzo[a]fluorene] was tested, and the IC99 was 0.203 µg/mL.
`CCCOc1ccc2nc3c(n2n1)Cc1ccccc1-3` [Compound 123, 3-Propoxy-5H-4,4a, 10-triaza-indeno[2,1-a]indene] gave an IC99 of 0.469 µg/mL.

Source: patent publication US7759349B2, “Control of parasites in animals by the use of imidazo[1,2-b]pyridazine derivatives” (Schering-Plough Animal Health Corporation, priority 2003, dated 2010)
